This note sets out measurements from patent US8119563B2, “N-substituted azacycles” (FMC Corporation, priority 2003, dated 2012).

This data set deals with tobacco budworm (Heliothis virescens [Fabricius]). Kind of data set: surface-treated diet test, insecticidal activity against tobacco budworm. The settings on record: 0.25 millimoles of candidate insecticide on the surface of the diet, second instar larvae, five-day exposure; for Percent Mortality / mortality: compared to total number of insects infested; for Percent Growth Inhibition / pest or weed control at 0.25 mmol/well: inhibition of insect weight relative to untreated controls; for mortality / pest or weed control at 0.25 mmol/well: Heliothis virescens, 120 h; for mortality: read-out: Percent Mortality; for pest or weed control at 0.25 mmol/well: read-out: Percent Growth Inhibition. Type of data set: in vivo. The arrangement: mortality: concentration or dose not given beside the values. Here is the method: Candidate insecticides were evaluated for activity against the tobacco budworm (Heliothis virescens [Fabricius]) in a surface-treated diet test.
In this test one mL of molten (65-70° C.) wheat germ-based artificial diet was pipetted into each well of a four by six (24 well) multi-well plate (ID# 430345-15.5 mm dia.×17.6 mm deep; Corning Costar Corp., One Alewife Center, Cambridge, Mass. 02140). The diet was allowed to cool to ambient temperature before treatment with candidate insecticide.
For a determination of insecticidal activity, solutions of the candidate insecticides were prepared for testing using a Packard 204DT Multiprobe® Robotic System (Packard Instrument Company, 800 Research Parkway, Meriden, Conn. 06450), in which the robot first diluted a standard 50 millimolar DMSO solution of candidate insecticide with a 1:1 water/acetone solution (V/V) in a ratio of 1:7 stock solution to water/acetone. The robot subsequently pipetted 40 microliters of the so-prepared solution onto the surface of the diet in each of three wells in the 24 multi-well plate. The process was repeated with solutions of seven other candidate insecticides. Once treated, the contents of the multi-well plate were allowed to dry, leaving 0.25 millimoles of candidate insecticide on the surface of the diet, or a concentration of 0.25 millimolar. Appropriate untreated controls containing only DMSO on the diet surface were also included in this test.
For evaluations of the insecticidal activity of a candidate insecticide at varying rates of application, the test was established as described above using sub-multiples of the standard 50 millimolar DMSO solution of candidate insecticide. For example, the standard 50 millimolar solution was diluted by the robot with DMSO to give 5, 0.5, 0.05, 0.005, 0.0005 millimolar, or more dilute solutions of the candidate insecticide. In these evaluations there were six replicates of each rate of application placed on the surface of the diet in the 24 multi-well plate, for a total of four rates of application of candidate insecticide in each plate.
In each well of the test plate was placed one second instar tobacco budworm larvea, each weighing approximately five milligrams. After the larvae were placed in each well, the plate was sealed with clear polyfilm adhesive tape. The tape over each well was perforated to ensure an adequate air supply. The plates were then held in a growth chamber at 25° C. and 60% relative humidity for five days (light 14 hours/day).
After the five-day exposure period insecticidal activity for each rate of application of candidate insecticide was assessed as percent inhibition of insect weight relative to the weight of insects from untreated controls, and percent mortality when compared to the total number of insects infested.
The test compounds of formula I are identified by numbers that correspond to those in Table 1.

For `CCON=Cc1ccc(C[N+]2([O-])CCC(O)(C(c3ccc(OC(F)(F)F)cc3)c3ccc(OC(F)(F)F)cc3)CC2)cc1` (centres unmarked) [Compound 118], the “Percent Mortality” value is reported as 100% and the “Percent Growth Inhibition” value is reported as 100%.

As to `CC(C)OC(=O)Nc1ccc(C[N+]2([O-])CCC(O)(C(c3ccc(OC(F)(F)F)cc3)c3ccc(OC(F)(F)F)cc3)CC2)cc1` (centres unmarked) [Compound 119], the “Percent Mortality” value is 100% and the “Percent Growth Inhibition” value worked out at 100%.

As for `[O-][N+]1(Cc2ccc(Oc3ncccn3)cc2)CCC(O)(C(c2ccc(C(F)(F)F)cc2)c2ccc(C(F)(F)F)cc2)CC1` (centres unmarked) [Compound 120], the “Percent Mortality” value was found to be 100% and the “Percent Growth Inhibition” value turned out to be 100%.

As for `CCCOc1ccc(C[N+]2([O-])CCC(O)(C(O)(c3ccc(C(F)(F)F)cc3)c3ccc(C(F)(F)F)cc3)CC2)cc1` (centres unmarked) [Compound 121], the “Percent Mortality” value is given as 100% and the “Percent Growth Inhibition” value was 100%.

On to `Cn1nnc(-c2ccc(C[N+]3([O-])CCC(O)(C(O)(c4ccc(OC(F)(F)F)cc4)c4ccc(OC(F)(F)F)cc4)CC3)cc2)n1` (centres unmarked) [Compound 122], for which the “Percent Mortality” value is reported as 100% and the “Percent Growth Inhibition” value came out at 100%.

Take `CCCOc1ccc(C[N+]2([O-])CCC(O)(C(O)(c3ccc(OC(F)(F)F)cc3)c3ccc(OC(F)(F)F)cc3)CC2)cc1` (centres unmarked) [Compound 123]: the “Percent Mortality” value is listed as 100% and the “Percent Growth Inhibition” value was determined as 100%.

With `FC(F)(F)Oc1ccc(C(c2ccc(OC(F)(F)F)cc2)C2(F)CCN(Cc3ccc(Oc4ncccn4)cc3)CC2)cc1` [Compound 192, 4-{bis[4-(trifluoromethoxy)phenyl]methyl}-4-fluoro-1-[(4-pyrimidin-2-yloxyphenyl)methyl]piperidine], the mortality was 100% and the pest or weed control at 0.25 mmol/well is 100%.

As to `FC(F)(F)c1ccc(C(c2ccc(C(F)(F)F)cc2)C2(F)CCN(Cc3ccc(Oc4ccccn4)cc3)CC2)cc1` [Compound 193], the “Percent Mortality” value worked out at 100% and the “Percent Growth Inhibition” value was found to be 100%.

In the case of `FC(F)(F)c1ccc(C(c2ccc(C(F)(F)F)cc2)C2(F)CCN(Cc3ccc(Oc4ncccn4)cc3)CC2)cc1` [Compound 194], the “Percent Mortality” value is on record as 100% and the “Percent Growth Inhibition” value came out at 100%.

With `CCOC(=O)C1(C(Cl)(c2ccc(C(F)(F)F)cc2)c2ccc(C(F)(F)F)cc2)CCN(Cc2ccc(Oc3ccccn3)cc2)CC1` [Compound 195, ethyl 4-{bis[4-(trifluoromethyl)phenyl]chloromethyl}-1-[(4-(2-pyridyloxy)phenyl)methyl]piperidine-4-carboxylate], the mortality came to 100% and the pest or weed control at 0.25 mmol/well worked out at 100%.

With `Cc1ccc(Oc2ccc(CN3CCC(O)(C(c4ccc(OC(F)(F)F)cc4)c4ccc(OC(F)(F)F)cc4)CC3)cc2)nn1` [Compound 255], the “Percent Mortality” value was found to be 100% and the “Percent Growth Inhibition” value is reported as 100%.

With `O=Cc1ccc(C(c2ccc(OC(F)(F)F)cc2)C2(O)CCN(Cc3ccc(Oc4ccccn4)cc3)CC2)cc1` (centres unmarked) [Compound 256], the “Percent Mortality” value turned out to be 17% and the “Percent Growth Inhibition” value is reported as 100%.

For `CC(C)(C)c1ccc(C(c2ccc(OC(F)(F)F)cc2)C2(O)CCN(Cc3ccc(Oc4ccccn4)cc3)CC2)cc1` (centres unmarked) [Compound 257], the “Percent Mortality” value is on record as 100% and the “Percent Growth Inhibition” value is given as 100%.

As to `COCCOCCON=Cc1ccc(CN2CCC(O)(C(c3ccc(OC(F)(F)F)cc3)c3ccc(OC(F)(F)F)cc3)CC2)cc1` [Compound 258], the “Percent Mortality” value is reported as 100% and the “Percent Growth Inhibition” value is 100%.

In the case of `CCOCON=Cc1ccc(CN2CCC(O)(C(c3ccc(OC(F)(F)F)cc3)c3ccc(OC(F)(F)F)cc3)CC2)cc1` [Compound 259], the “Percent Mortality” value amounted to 100% and the “Percent Growth Inhibition” value was determined as 100%.

On to `COc1ccc(C(c2ccc(OC(F)(F)F)cc2)C2(O)CCN(Cc3ccc(Oc4ccccn4)cc3)CC2)cc1` (centres unmarked) [Compound 260], for which the “Percent Mortality” value was determined as 100% and the “Percent Growth Inhibition” value is 100%.

As for `OC1(C(c2ccc(Br)cc2)c2ccc(OC(F)(F)F)cc2)CCN(Cc2ccc(Oc3ccccn3)cc2)CC1` (centres unmarked) [Compound 261], the “Percent Mortality” value is 100% and the “Percent Growth Inhibition” value is recorded as 100%.

Take `Cc1ccc(C(c2ccc(OC(F)(F)F)cc2)C2(O)CCN(Cc3ccc(Oc4ccccn4)cc3)CC2)cc1` (centres unmarked) [Compound 262]: the “Percent Mortality” value was 100% and the “Percent Growth Inhibition” value stood at 100%.

`OC1(C(c2ccc(OC(F)(F)F)cc2)c2ccc(OC(F)(F)F)cc2)CCN(Cc2ccc(C3OCCO3)cc2)CC1` [Compound 263]: the “Percent Mortality” value is 100% and the “Percent Growth Inhibition” value turned out to be 100%.

In the case of `OC1(C(c2ccc(C(F)(F)F)cc2)c2ccc(C(F)(F)F)cc2)CCN(Cc2ccc(C3OCCO3)cc2)CC1` [Compound 264], the “Percent Mortality” value came out at 33% and the “Percent Growth Inhibition” value is 100%.

Consider `OC1(C(c2ccc(OC(F)(F)F)cc2)c2ccc(C(F)(F)F)cc2)CCN(Cc2ccc(Oc3ccccn3)cc2)CC1` (centres unmarked) [Compound 265], for which the “Percent Mortality” value was 100% and the “Percent Growth Inhibition” value was determined as 100%.

On to `COCCON=Cc1ccc(CN2CCC(O)(C(c3ccc(OC(F)(F)F)cc3)c3ccc(OC(F)(F)F)cc3)CC2)cc1` [Compound 266], for which the “Percent Mortality” value worked out at 100% and the “Percent Growth Inhibition” value was 100%.

For the molecule `OC1(C(c2ccc(Cl)cc2)c2ccc(Cl)cc2)CCN(Cc2ccc(Oc3ccccn3)cc2)CC1` [Compound 267], the “Percent Mortality” value worked out at 100% and the “Percent Growth Inhibition” value is listed as 100%.

In the case of `ON=Cc1ccc(CN2CCC(O)(C(c3ccc(C(F)(F)F)cc3)c3ccc(C(F)(F)F)cc3)CC2)cc1` [Compound 270], the “Percent Mortality” value is listed as 100% and the “Percent Growth Inhibition” value is given as 100%.

As for `Cc1cccnc1Oc1ccc(CN2CCC(O)(C(c3ccc(OC(F)(F)F)cc3)c3ccc(OC(F)(F)F)cc3)CC2)cc1` [Compound 271], the “Percent Mortality” value was 100% and the “Percent Growth Inhibition” value is 100%.

For `Cc1ccc(Oc2ccc(CN3CCC(O)(C(c4ccc(OC(F)(F)F)cc4)c4ccc(OC(F)(F)F)cc4)CC3)cc2)nc1` [Compound 272], the “Percent Mortality” value stood at 100% and the “Percent Growth Inhibition” value was found to be 100%.

For `CCOC(OCC)c1ccc(CN2CCC(O)(C(c3ccc(OC(F)(F)F)cc3)c3ccc(OC(F)(F)F)cc3)CC2)cc1` [Compound 273], the “Percent Mortality” value is recorded as 100% and the “Percent Growth Inhibition” value is 100%.

For the molecule `COc1ccc(Oc2ccc(CN3CCC(O)(C(c4ccc(OC(F)(F)F)cc4)c4ccc(OC(F)(F)F)cc4)CC3)cc2)nn1` [Compound 274], the “Percent Mortality” value stood at 100% and the “Percent Growth Inhibition” value is recorded as 100%.

As to `N#CCON=Cc1ccc(CN2CCC(O)(C(c3ccc(OC(F)(F)F)cc3)c3ccc(OC(F)(F)F)cc3)CC2)cc1` [Compound 275], the “Percent Mortality” value worked out at 100% and the “Percent Growth Inhibition” value is 100%.

As to `Cc1cccc(Oc2ccc(CN3CCC(O)(C(c4ccc(OC(F)(F)F)cc4)c4ccc(OC(F)(F)F)cc4)CC3)cc2)n1` [Compound 276], the “Percent Mortality” value is 100% and the “Percent Growth Inhibition” value amounted to 100%.

Regarding `CON=C(Cl)c1ccc(CN2CCC(O)(C(c3ccc(OC(F)(F)F)cc3)c3ccc(OC(F)(F)F)cc3)CC2)cc1` [Compound 277], the “Percent Mortality” value came to 100% and the “Percent Growth Inhibition” value is 100%.

As to `CCOC(=O)COc1ccc(CN2CCC(O)(C(c3ccc(OC(F)(F)F)cc3)c3ccc(OC(F)(F)F)cc3)CC2)cc1` [Compound 279], the “Percent Mortality” value was determined as 83% and the “Percent Growth Inhibition” value is 100%.

On to `CC1(C)COC(c2ccc(CN3CCC(O)(C(c4ccc(OC(F)(F)F)cc4)c4ccc(OC(F)(F)F)cc4)CC3)cc2)OC1` [Compound 280], for which the “Percent Mortality” value came out at 100% and the “Percent Growth Inhibition” value amounted to 100%.

For `N#Cc1cccnc1Oc1ccc(CN2CCC(O)(C(c3ccc(OC(F)(F)F)cc3)c3ccc(OC(F)(F)F)cc3)CC2)cc1` [Compound 281], the “Percent Mortality” value is 100% and the “Percent Growth Inhibition” value was 100%.
